Experiments:
Type in all cases: binding
[1] = biological target: T1, AstC (Escherichia coli, UniProt P77581); experiment: X-ray crystal structure, […] Å; details: covalent; internal aldimine with Lys252 at dimer interface; sodium malonate, Tris pH 8.0
T1 construct: full-length, native untagged, no plasmid; purified from E. coli BL21(DE3) by Ni-NTA and size exclusion as apo-protein, reconstituted with PLP; about 406 residues; dimer

[2] = biological target: T1, AstC; experiment: differential scanning fluorimetry, SYPRO dye; details: Tris buffered saline; apo-protein plus PLP (about 10-fold excess) versus apo-protein
[3] = biological target: T1, AstC; experiment: X-ray crystal structure of co-crystals, […] Å; details: covalent to PLP cofactor (external aldimine); PLP present; salt bridge to Arg141; ammonium sulfate pH 7-9

T1 sequence (P77581 whole entry): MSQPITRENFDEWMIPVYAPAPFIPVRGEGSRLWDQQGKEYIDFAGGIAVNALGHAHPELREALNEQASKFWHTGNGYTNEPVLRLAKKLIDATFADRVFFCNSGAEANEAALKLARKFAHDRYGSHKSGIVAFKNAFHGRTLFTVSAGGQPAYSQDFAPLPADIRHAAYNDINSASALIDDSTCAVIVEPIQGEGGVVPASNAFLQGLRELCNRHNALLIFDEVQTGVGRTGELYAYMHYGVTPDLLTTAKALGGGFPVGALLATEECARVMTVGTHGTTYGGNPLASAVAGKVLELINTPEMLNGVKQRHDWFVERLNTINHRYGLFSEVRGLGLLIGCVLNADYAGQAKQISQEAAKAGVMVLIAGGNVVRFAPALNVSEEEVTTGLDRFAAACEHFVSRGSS

| SMILES | X-ray crystal structure, 2.20 Å [1] | apparent Tm (holo-AstC; apo-AstC 43.5) [2] [°C] | X-ray crystal structure of co-crystals, 2.45 Å [3] |
| --- | --- | --- | --- |
| Cc1ncc(COP(=O)(O)O)c(C=O)c1O [PLP, pyridoxal phosphate] | continuous density between Lys252 and the PLP, indicating that the expected aldimine had formed | 46 | – |
| NCCC[C@H](NC(=O)CCC(=O)O)C(=O)O [SO, succinylornithine] | – | – | continuous electron density between PLP and SO was observed (see Figure 5C) |

— publication PMC3590144, “Determination of the Structure of the Catabolic N-Succinylornithine Transaminase (AstC) from Escherichia coli” (PLoS ONE, 2013)
